According to patent publication US20240270762A1, “PENICILLIN-BINDING PROTEIN INHIBITORS” (priority 2021, published 2024):
In brackets after ≈: the same amount, converted by molar mass.

Columns and labels:
[1] = tested on: N. gonorrhoeae WHO Q; experiment: Liquid broth MIC in Fastidious broth; conditions: Neisseria gonorrhoeae, read-out: Minimum Inhibitory Concentration, WHO Q
[2] = tested on: N. gonorrhoeae WHO X; experiment: Liquid broth MIC in Fastidious broth; conditions: Neisseria gonorrhoeae, read-out: Minimum Inhibitory Concentration, WHO X
[3] = tested on: N. gonorrhoeae WHO K; experiment: Liquid broth MIC in Fastidious broth; conditions: Neisseria gonorrhoeae, read-out: Minimum Inhibitory Concentration, WHO K
[4] = tested on: N. gonorrhoeae WHO L; experiment: Liquid broth MIC in Fastidious broth; conditions: Neisseria gonorrhoeae, read-out: Minimum Inhibitory Concentration, WHO L
[5] = tested on: N. gonorrhoeae WHO Z; experiment: Liquid broth MIC in Fastidious broth; conditions: Neisseria gonorrhoeae, read-out: Minimum Inhibitory Concentration, WHO Z
[6] = tested on: N. gonorrhoeae FA1090; experiment: Liquid broth MIC in Fastidious broth; conditions: Neisseria gonorrhoeae, FA1090, read-out: Minimum Inhibitory Concentration, FA 1090
[7] = molecular target: T1, PBP1a from Acinetobacter baumannii (ATCC 19606) (Acinetobacter baumannii, UniProt A0ABX6CK30); experiment: Bocillin-FL fluorescence polarization competition binding, A. baumannii PBP1a; conditions: fluorescence polarization competition binding assay using Bocillin-FL; read-out: A. baumannii PBP1a Potency
T1 sequence (A0ABX6CK30 1-851): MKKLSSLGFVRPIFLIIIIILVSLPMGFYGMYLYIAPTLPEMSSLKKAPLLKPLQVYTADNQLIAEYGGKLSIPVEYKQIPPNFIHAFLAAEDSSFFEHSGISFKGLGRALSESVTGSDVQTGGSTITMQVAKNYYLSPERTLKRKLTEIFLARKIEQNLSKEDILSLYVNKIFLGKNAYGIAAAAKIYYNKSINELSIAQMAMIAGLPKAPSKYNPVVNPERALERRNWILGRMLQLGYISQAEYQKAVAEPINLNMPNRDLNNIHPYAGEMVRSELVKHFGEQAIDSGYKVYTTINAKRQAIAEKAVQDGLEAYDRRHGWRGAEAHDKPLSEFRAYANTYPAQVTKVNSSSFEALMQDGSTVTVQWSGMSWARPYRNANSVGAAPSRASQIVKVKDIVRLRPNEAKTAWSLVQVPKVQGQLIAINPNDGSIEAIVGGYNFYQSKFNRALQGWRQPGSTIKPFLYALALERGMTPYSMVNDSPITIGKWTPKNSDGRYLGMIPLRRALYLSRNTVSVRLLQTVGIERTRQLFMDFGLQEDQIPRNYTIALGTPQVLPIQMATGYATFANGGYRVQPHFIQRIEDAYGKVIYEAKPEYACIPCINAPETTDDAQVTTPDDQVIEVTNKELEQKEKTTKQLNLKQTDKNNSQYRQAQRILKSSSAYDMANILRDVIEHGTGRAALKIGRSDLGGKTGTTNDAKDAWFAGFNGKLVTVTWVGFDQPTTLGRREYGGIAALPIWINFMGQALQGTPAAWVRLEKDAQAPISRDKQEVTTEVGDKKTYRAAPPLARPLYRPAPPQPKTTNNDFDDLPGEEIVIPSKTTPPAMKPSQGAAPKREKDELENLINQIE
Procedure, shortened: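 Purified PBPs pre-incubated with inhibitor (E. coli PBP3 1.5 μM, 30 min; P. aeruginosa PBP3 0.75 μM, A. baumannii PBP1a 1 μM and PBP3 0.2 μM, 15 min), then Bocillin-FL 0.1 μM (0.05 μM for PBP1a) added; FP read up to 60 min. EC50 = concentration halving bound Bocillin-FL.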

[8] = tested on: N. gonorrhoeae ATCC 49226; experiment: Liquid broth MIC in Fastidious broth; conditions: Neisseria gonorrhoeae, ATCC49226, read-out: Minimum Inhibitory Concentration, ATCC 49226

Compound | MIC [1] [µg/mL] | MIC [2] [µg/mL] | MIC [3] [µg/mL] | MIC [4] [µg/mL] | MIC [5] [µg/mL] | MIC [6] [µg/mL] | IC50 [7] [µM] | MIC [8] [µg/mL]
O=C(NCCCN1CCN(C(=O)N[C@@H](C(=O)N[C@H]2Cc3ccc(F)c(C(=O)O)c3OB2O)c2cc(F)c(O)c(O)c2Cl)C(=O)C1=O)c1ccncc1 [Example 294, (R)-3-((R)-2-(2-chloro-5-fluoro-3,4-dihydroxyphenyl)-2-(4-(3-(isonicotinamido)propyl)-2,3-dioxopiperazine-1-carboxamido)acetamido)-7-fluoro-2-hydroxy-3,4-dihydro-2H-benzo[e][1,2]oxaborinine-8-carboxylic acid] | > 64 | > 64 | > 64 | > 64 | 16 to 32 (≈ 21.5 to 43 µM) | 1 to 2 (≈ 1.34 to 2.69 µM) | > 250 | 16 to 32 (≈ 21.5 to 43 µM)
O=C(NCCN1CCN(C(=O)N[C@@H](C(=O)N[C@H]2Cc3ccc(F)c(C(=O)O)c3OB2O)c2cc(F)c(O)c(O)c2Cl)C1=O)Nc1ccc(O)cc1 [Example 279, (R)-3-((R)-2-(2-chloro-5-fluoro-3,4-dihydroxyphenyl)-2-(3-(2-(3-(4-hydroxyphenyl)ureido)ethyl)-2-oxoimidazolidine-1-carboxamido)acetamido)-7-fluoro-2-hydroxy-3,4-dihydro-2H-benzo[e][1,2]oxaborinine-8-carboxylic acid] | 16 to 32 (≈ 21.8 to 43.7 µM) | > 64 | 16 to 32 (≈ 21.8 to 43.7 µM) | 16 to 32 (≈ 21.8 to 43.7 µM) | 4 to 8 (≈ 5.46 to 10.9 µM) | < 1 | > 250 | 4 to 8 (≈ 5.46 to 10.9 µM)
O=C(NCCCN1CCN(C(=O)N[C@H](C(=O)N[C@H]2Cc3ccc(F)c(C(=O)O)c3OB2O)c2cc(F)c(O)c(O)c2Cl)C(=O)C1=O)c1cccc(O)c1Cl [Example 302, (R)-3-((S)-2-(4-(3-(2-chloro-3-hydroxybenzamido)propyl)-2,3-dioxopiperazine-1-carboxamido)-2-(2-chloro-5-fluoro-3,4-dihydroxyphenyl)acetamido)-7-fluoro-2-hydroxy-3,4-dihydro-2H-benzo[e][1,2]oxaborinine-8-carboxylic acid] | > 64 | > 64 | > 64 | > 64 | > 64 | > 64 | > 250 | > 64
O=C(NCCS(=O)(=O)N1CCN(C(=O)N[C@@H](C(=O)N[C@H]2Cc3ccc(F)c(C(=O)O)c3OB2O)c2cc(F)c(O)c(O)c2Cl)C1=O)c1ccc(O)cc1 [Example 287, (R)-3-((R)-2-(2-chloro-5-fluoro-3,4-dihydroxyphenyl)-2-(3-((2-(4-hydroxybenzamido)ethyl)sulfonyl)-2-oxoimidazolidine-1-carboxamido)acetamido)-7-fluoro-2-hydroxy-3,4-dihydro-2H-benzo[e][1,2]oxaborinine-8-carboxylic acid] | 4 to 8 (≈ 5.12 to 10.2 µM) | > 64 | 16 to 32 (≈ 20.5 to 40.9 µM) | > 64 | 4 to 8 (≈ 5.12 to 10.2 µM) | 1 to 2 (≈ 1.28 to 2.56 µM) | > 250 | 4 to 8 (≈ 5.12 to 10.2 µM)
O=C(NCCCN1CCN(C(=O)NC(C(=O)N[C@H]2Cc3ccc(F)c(C(=O)O)c3OB2O)c2cc(F)c(O)c(O)c2Cl)C(=O)C1=O)c1ccc(O)c(F)c1F (stereo partly drawn) [Example 306, (3R)-3-(2-(2-chloro-5-fluoro-3,4-dihydroxyphenyl)-2-(4-(3-(2,3-difluoro-4-hydroxybenzamido)propyl)-2,3-dioxopiperazine-1-carboxamido)acetamido)-7-fluoro-2-hydroxy-3,4-dihydro-2H-benzo[e][1,2]oxaborinine-8-carboxylic acid] | > 64 | > 64 | > 64 | > 64 | > 64 | 1 to 2 (≈ 1.26 to 2.51 µM) | > 250 | 16 to 32 (≈ 20.1 to 40.2 µM)
O=C(O)c1c(F)ccc2c1OB(O)[C@@H](NC(=O)C(NC(=O)N1CCN(Cc3ccc(O)c(O)c3Cl)C(=O)C1=O)c1cc(F)c(O)c(O)c1Cl)C2 (stereo partly drawn) [Example 292, (3R)-3-(2-(4-(2-chloro-3,4-dihydroxybenzyl)-2,3-dioxopiperazine-1-carboxamido)-2-(2-chloro-5-fluoro-3,4-dihydroxyphenyl)acetamido)-7-fluoro-2-hydroxy-3,4-dihydro-2H-benzo[e][1,2]oxaborinine-8-carboxylic acid] | > 64 | > 64 | > 64 | > 64 | > 64 | 16 to 32 (≈ 21.6 to 43.3 µM) | > 250 | > 64
O=C(NCCCS(=O)(=O)N1CCN(C(=O)NC(C(=O)N[C@H]2Cc3ccc(F)c(C(=O)O)c3OB2O)c2cc(F)c(O)c(O)c2Cl)C1=O)Nc1cccc(O)c1 (stereo partly drawn) [Example 277, (3R)-3-(2-(2-chloro-5-fluoro-3,4-dihydroxyphenyl)-2-(3-((3-(3-(3-hydroxyphenyl)ureido)propyl)sulfonyl)-2-oxoimidazolidine-1-carboxamido)acetamido)-7-fluoro-2-hydroxy-3,4-dihydro-2H-benzo[e][1,2]oxaborinine-8-carboxylic acid] | 16 to 32 (≈ 19.7 to 39.5 µM) | > 64 | > 64 | > 64 | 16 to 32 (≈ 19.7 to 39.5 µM) | 1 to 2 (≈ 1.23 to 2.47 µM) | > 250 | 16 to 32 (≈ 19.7 to 39.5 µM)
O=C(O)c1c(F)ccc2c1OB(O)[C@@H](NC(=O)C(NC(=O)N1CCN(C3CCN(C(=O)c4cccc(O)c4)CC3)C(=O)C1=O)c1cc(F)c(O)c(O)c1Cl)C2 (stereo partly drawn) [Example 293, (3R)-3-(2-(2-chloro-5-fluoro-3,4-dihydroxyphenyl)-2-(4-(1-(3-hydroxybenzoyl)piperidin-4-yl)-2,3-dioxopiperazine-1-carboxamido)acetamido)-7-fluoro-2-hydroxy-3,4-dihydro-2H-benzo[e][1,2]oxaborinine-8-carboxylic acid] | > 64 | > 64 | > 64 | > 64 | > 64 | 1 to 2 (≈ 1.27 to 2.54 µM) | > 250 | 16 to 32 (≈ 20.4 to 40.7 µM)
O=C(NCCCN1CCN(C(=O)NC(C(=O)N[C@H]2Cc3ccc(F)c(C(=O)O)c3OB2O)c2cc(F)c(O)c(O)c2Cl)C(=O)C1=O)c1ccncc1Cl (stereo partly drawn) [Example 295, (3R)-3-(2-(2-chloro-5-fluoro-3,4-dihydroxyphenyl)-2-(4-(3-(3-chloroisonicotinamido)propyl)-2,3-dioxopiperazine-1-carboxamido)acetamido)-7-fluoro-2-hydroxy-3,4-dihydro-2H-benzo[e][1,2]oxaborinine-8-carboxylic acid] | > 64 | > 64 | > 64 | > 64 | > 64 | 1 to 2 (≈ 1.28 to 2.57 µM) | > 250 | 16 to 32 (≈ 20.5 to 41.1 µM)
O=C(NCCCN1CCN(C(=O)NC(C(=O)N[C@H]2Cc3ccc(F)c(C(=O)O)c3OB2O)c2cc(F)c(O)c(O)c2Cl)C(=O)C1=O)c1ccc(O)cc1O (stereo partly drawn) [Example 307, (3R)-3-(2-(2-chloro-5-fluoro-3,4-dihydroxyphenyl)-2-(4-(3-(2,4-dihydroxybenzamido)propyl)-2,3-dioxopiperazine-1-carboxamido)acetamido)-7-fluoro-2-hydroxy-3,4-dihydro-2H-benzo[e][1,2]oxaborinine-8-carboxylic acid] | > 64 | > 64 | > 64 | > 64 | > 64 | 1 to 2 (≈ 1.29 to 2.58 µM) | > 250 | 16 to 32 (≈ 20.6 to 41.2 µM)
